{"source": "ChEMBL document CHEMBL3507680", "about": "“University of Dundee, Gates Library screen for HepG2 cell viability”", "test": "Human HepG2 cell viability assay in 384 well format", "format": "toxicity, cell-based", "parameters": "dose 125 nL, time 70.5 hour; cytotoxicity at 70.5 h: concentration not given beside the values", "conditions": "HepG2 cells, read-out: Inhibition"}
{"molecule": "CC(NC(=O)NCCc1cnn(C)c1)c1ccc(Cl)s1", "note": "(stereo not drawn)", "values": [{"measurement": "cytotoxicity at 70.5 h", "value": -15, "unit": "%"}]}
{"molecule": "N#Cc1ccc(CN(CC(N)=O)C2CCCC2)cc1", "values": [{"measurement": "cytotoxicity at 70.5 h", "value": -9.26, "unit": "%"}]}
{"molecule": "Cc1ccc(-c2nc(CN(C)C3CCS(=O)(=O)C3)cs2)o1", "note": "(stereo not drawn)", "values": [{"measurement": "cytotoxicity at 70.5 h", "value": -8.59, "unit": "%"}]}
{"molecule": "COc1ccc(N2CCCN(CC(=O)N3CCNC(=O)C3)CC2)cc1", "values": [{"measurement": "cytotoxicity at 70.5 h", "value": -8.51, "unit": "%"}]}
{"molecule": "N#Cc1cccnc1N1CCCN(CC(=O)N2CCNC(=O)C2)CC1", "values": [{"measurement": "cytotoxicity at 70.5 h", "value": -5.07, "unit": "%"}]}
{"molecule": "CCc1nc(CN2CCCC(Nc3ncnc4ccsc34)C2)no1", "note": "(stereo not drawn)", "values": [{"measurement": "cytotoxicity at 70.5 h", "value": -8.27, "unit": "%"}]}
{"molecule": "N#Cc1ccccc1CN(CC(N)=O)C1CCCC1", "values": [{"measurement": "cytotoxicity at 70.5 h", "value": -7.95, "unit": "%"}]}
{"molecule": "Cc1nc(CN2CCCC(Nc3ncnc4ccsc34)C2)no1", "note": "(stereo not drawn)", "values": [{"measurement": "cytotoxicity at 70.5 h", "value": -9.16, "unit": "%"}]}
{"molecule": "O=C(CCC(=O)c1cccs1)NC1(C(=O)NCC2CC2)CCCC1", "values": [{"measurement": "cytotoxicity at 70.5 h", "value": -1.16, "unit": "%"}]}
{"molecule": "O=C1C(Nc2ccc3nccnc3n2)CCN1c1ccccc1F", "note": "(stereo not drawn)", "values": [{"measurement": "cytotoxicity at 70.5 h", "value": -9.82, "unit": "%"}]}
{"molecule": "O=C1C(Nc2ccc3nccnc3n2)CCN1c1ccccc1", "note": "(stereo not drawn)", "values": [{"measurement": "cytotoxicity at 70.5 h", "value": -6.11, "unit": "%"}]}
{"molecule": "C=C(C)COCCNC(=O)Nc1cccc(Cn2nc(C)nc2C)c1", "values": [{"measurement": "cytotoxicity at 70.5 h", "value": 19.9, "unit": "%"}]}
{"molecule": "O=C1CC(Nc2ccc3nccnc3n2)CN1c1ccccc1", "note": "(stereo not drawn)", "values": [{"measurement": "cytotoxicity at 70.5 h", "value": -2.9, "unit": "%"}]}
{"molecule": "Cc1noc(-c2cccnc2N(C)Cc2cc(C)on2)n1", "values": [{"measurement": "cytotoxicity at 70.5 h", "value": -7.15, "unit": "%"}]}
{"molecule": "Cc1csc(C2(NCc3nnc(-c4ccco4)o3)CCCC2)n1", "values": [{"measurement": "cytotoxicity at 70.5 h", "value": 0.188, "unit": "%"}]}
{"molecule": "CCn1c(CN(C)CC(F)(F)F)nc2c(F)cccc21", "values": [{"measurement": "cytotoxicity at 70.5 h", "value": -0.949, "unit": "%"}]}
{"molecule": "Cc1nccn1C1CCCN(C(=O)Cn2ccc(=O)n(C)c2=O)C1", "note": "(stereo not drawn)", "values": [{"measurement": "cytotoxicity at 70.5 h", "value": -14.6, "unit": "%"}]}
{"molecule": "CC(NCCCc1cnn(C)c1)c1ccc(Cl)s1", "note": "(stereo not drawn)", "values": [{"measurement": "cytotoxicity at 70.5 h", "value": 2.71, "unit": "%"}]}
{"molecule": "CO[C@H]1CO[C@@]2(CCCN(C(=O)N3CCCC3)C2)C1", "values": [{"measurement": "cytotoxicity at 70.5 h", "value": 1.63, "unit": "%"}]}
{"molecule": "Cn1cccc1C(=O)N1CCO[C@@H]2CN(Cc3ccco3)C[C@@H]2C1", "values": [{"measurement": "cytotoxicity at 70.5 h", "value": -5.04, "unit": "%"}]}
{"molecule": "CNC(=O)NCC1CCC2(CCN(c3ncccn3)CC2)CO1", "note": "(stereo not drawn)", "values": [{"measurement": "cytotoxicity at 70.5 h", "value": -3.53, "unit": "%"}]}
{"molecule": "CCOCC(=O)N1CCc2nc(C)nc(NC(C)C)c2CC1", "values": [{"measurement": "cytotoxicity at 70.5 h", "value": 16, "unit": "%"}]}
{"molecule": "CCS(=O)(=O)N1C[C@@H](c2ccccc2)[C@@]2(CCNC2=O)C1", "values": [{"measurement": "cytotoxicity at 70.5 h", "value": -4.06, "unit": "%"}]}
{"molecule": "O=C(c1ccoc1)N1CCC2(CCCN(c3ncc(F)cn3)C2)C1", "note": "(stereo not drawn)", "values": [{"measurement": "cytotoxicity at 70.5 h", "value": -1.48, "unit": "%"}]}
{"molecule": "CCN1CCO[C@@H]2CN(C(=O)NCc3ccccc3)CC[C@@H]2C1", "values": [{"measurement": "cytotoxicity at 70.5 h", "value": -4.68, "unit": "%"}]}
{"molecule": "COC[C@@]12CCC[C@@H]1CN(C(=O)COc1ccccc1OC)C2", "values": [{"measurement": "cytotoxicity at 70.5 h", "value": -3.63, "unit": "%"}]}
{"molecule": "NC(=O)C1Cn2ccnc2C2(CCN(C(=O)c3ccncc3)CC2)O1", "note": "(stereo not drawn)", "values": [{"measurement": "cytotoxicity at 70.5 h", "value": -4.78, "unit": "%"}]}
{"molecule": "O=C([C@@H]1CCCO1)N1CCN(Cc2ccncc2)c2ncccc2C1", "values": [{"measurement": "cytotoxicity at 70.5 h", "value": -0.675, "unit": "%"}]}
{"molecule": "CN(C)Cc1nc2c(o1)CN(C(=O)c1ccncc1F)C2", "values": [{"measurement": "cytotoxicity at 70.5 h", "value": -8.38, "unit": "%"}]}
{"molecule": "CNC(=O)[C@H]1C[C@@H]2CN(C(=O)c3ccc(C)nc3)C[C@@H]2N1C", "values": [{"measurement": "cytotoxicity at 70.5 h", "value": -15.1, "unit": "%"}]}
{"molecule": "CNC(=O)[C@H]1C[C@@H]2CN(C(=O)c3cncc(C)c3)C[C@@H]2N1C", "values": [{"measurement": "cytotoxicity at 70.5 h", "value": -16.6, "unit": "%"}]}
{"molecule": "CCN(CC)Cc1nc2c(o1)CN(C(=O)c1ccncc1F)C2", "values": [{"measurement": "cytotoxicity at 70.5 h", "value": -4.3, "unit": "%"}]}
{"molecule": "CCOCC1CN(C(=O)CC2=CCCCC2)Cc2nnn(C)c21", "note": "(stereo not drawn)", "values": [{"measurement": "cytotoxicity at 70.5 h", "value": -12.8, "unit": "%"}]}
{"molecule": "O=C([C@@H]1CCO[C@@H]2CCN(CC3CC3)C[C@H]21)N1CCCC1", "values": [{"measurement": "cytotoxicity at 70.5 h", "value": -2.49, "unit": "%"}]}
{"molecule": "CC(=O)N1CCCCCC1C1CCN(Cc2nnc(C(C)(C)C)o2)CC1", "note": "(stereo not drawn)", "values": [{"measurement": "cytotoxicity at 70.5 h", "value": -5.64, "unit": "%"}]}
{"molecule": "Cc1nccc(NCc2cncc3c2CCN(CC2CCOC2)C3)n1", "note": "(stereo not drawn)", "values": [{"measurement": "cytotoxicity at 70.5 h", "value": 5.73, "unit": "%"}]}
{"molecule": "CC(C)N(C)Cc1cncc2c1CCN(Cc1ccoc1)C2", "values": [{"measurement": "cytotoxicity at 70.5 h", "value": -1.23, "unit": "%"}]}
{"molecule": "CN(C)Cc1cncc2c1CCN(Cc1ccoc1)C2", "values": [{"measurement": "cytotoxicity at 70.5 h", "value": -4.55, "unit": "%"}]}
{"molecule": "CCN1CCc2c(CNC(=O)c3nccn3C)cncc2C1", "values": [{"measurement": "cytotoxicity at 70.5 h", "value": -10.7, "unit": "%"}]}
{"molecule": "CC(C)N1CCc2c(CNC(=O)c3nccn3C)cncc2C1", "values": [{"measurement": "cytotoxicity at 70.5 h", "value": -4.9, "unit": "%"}]}
{"molecule": "Cc1noc(C)c1CN1CCc2ncnc(-c3ccc(F)cc3)c2CC1", "values": [{"measurement": "cytotoxicity at 70.5 h", "value": 2.47, "unit": "%"}]}
{"molecule": "CNC(=O)NCC1CCC2(CCN(C(=O)c3cccnc3)CC2)CO1", "note": "(stereo not drawn)", "values": [{"measurement": "cytotoxicity at 70.5 h", "value": 3.36, "unit": "%"}]}
{"molecule": "Cc1noc(C)c1CN1CCC2(CC1)C(c1ccccc1)CC(=O)N2C", "note": "(stereo not drawn)", "values": [{"measurement": "cytotoxicity at 70.5 h", "value": -1.86, "unit": "%"}]}
{"molecule": "CS(=O)(=O)N1CCC2(CC1)CN(CC1CCOC1)c1ccccc12", "note": "(stereo not drawn)", "values": [{"measurement": "cytotoxicity at 70.5 h", "value": 5.41, "unit": "%"}]}
{"molecule": "O=C(c1ccsc1)N1CCO[C@@H]2CN(Cc3ccco3)CC[C@@H]2C1", "values": [{"measurement": "cytotoxicity at 70.5 h", "value": 0.973, "unit": "%"}]}
{"molecule": "O=C(Cc1cccc(F)c1)N1CCc2ncnc(NC3CC3)c2CC1", "values": [{"measurement": "cytotoxicity at 70.5 h", "value": 1.87, "unit": "%"}]}
{"molecule": "CN1CCO[C@@H]2CN(C(=O)NCc3ccccc3)CC[C@@H]2C1", "values": [{"measurement": "cytotoxicity at 70.5 h", "value": 9.51, "unit": "%"}]}
{"molecule": "CCn1ncc2c1C(COC)N(C(=O)c1cscn1)CC2", "note": "(stereo not drawn)", "values": [{"measurement": "cytotoxicity at 70.5 h", "value": 6.98, "unit": "%"}]}
{"molecule": "O=C(COC[C@@]12CCC[C@@H]1CN(C1CCCC1)C2)N1CCCC1", "values": [{"measurement": "cytotoxicity at 70.5 h", "value": -1.08, "unit": "%"}]}
{"molecule": "CCn1ncc2c1C(COC)N(C(=O)c1cccs1)CC2", "note": "(stereo not drawn)", "values": [{"measurement": "cytotoxicity at 70.5 h", "value": 0.803, "unit": "%"}]}
{"molecule": "CCn1ncc2c1C(COC)N(C(=O)c1ccsc1)CC2", "note": "(stereo not drawn)", "values": [{"measurement": "cytotoxicity at 70.5 h", "value": -6.73, "unit": "%"}]}
{"molecule": "CCN1C[C@H]2C3(CCN(S(C)(=O)=O)CC3)CC[C@@]2(C(=O)N(C)C)C1", "values": [{"measurement": "cytotoxicity at 70.5 h", "value": -9.68, "unit": "%"}]}
{"molecule": "CCN1C[C@H]2C3(CCN(C(=O)NC(C)C)CC3)CC[C@@]2(C(=O)N(C)C)C1", "values": [{"measurement": "cytotoxicity at 70.5 h", "value": -8.21, "unit": "%"}]}
{"molecule": "CCN1CCC2(CC1)CC(NC(=O)c1csnn1)c1ccccc1O2", "note": "(stereo not drawn)", "values": [{"measurement": "cytotoxicity at 70.5 h", "value": -7.53, "unit": "%"}]}
{"molecule": "O=C(NCc1ccccn1)[C@@]12CCO[C@@H]1CCN(C1CCCC1)C2", "values": [{"measurement": "cytotoxicity at 70.5 h", "value": -1.56, "unit": "%"}]}
{"molecule": "Fc1cccc(CN2CCOC3(COCCN(CC4CC4)C3)C2)c1", "note": "(stereo not drawn)", "values": [{"measurement": "cytotoxicity at 70.5 h", "value": -8.93, "unit": "%"}]}
{"molecule": "O=C(c1ccncc1F)N1Cc2nc(CN3CCCCC3)oc2C1", "values": [{"measurement": "cytotoxicity at 70.5 h", "value": -8.64, "unit": "%"}]}
{"molecule": "CN1[C@H](Cn2cncn2)C[C@@H]2CN(Cc3ccsc3)CC[C@@H]21", "values": [{"measurement": "cytotoxicity at 70.5 h", "value": -3.81, "unit": "%"}]}
